pEC50: −log10 of the molar value. Numbered stars: 1 amine (or outer) side, 2 acyl side, 3 side chain; on linkers, the order of the positions; unused ones are H or OH. Bridge positions count the residues as written; N and C are the ends. Square brackets hold non-standard residues; d marks the D form. Peptide text beside a SMILES is read from it. * marks the point of attachment. Adda = CO[C@@H](Cc1ccccc1)[C@@H](C)/C=C(C)/C=C/[C@H](N[*:1])[C@H](C)C(=O)[*:2]; dAsp(3S-Me) = C[C@H](C(=O)[*:3])[C@@H](N[*:1])C(=O)[*:2]; d(γGlu) = O=C(O)[C@@H](CCC(=O)[*:2])N[*:1]; NMeDha = C=C(NC)C(=O)O; Propargyl = C#CC*
What was measured:
HEK293 [1] = assay: Cytotoxicity against OATP1B1 (-/-) HEK293 cells incubated for 48 hrs by sulforhodamine B assay; format: ADME, cell-based, Homo sapiens
[2] = Drug uptake in OATP1B1 (-/-) HEK293 cells at 100 nM measured up to 8 mins by fluorescence time-lapse microscopy; format: ADME, cell-based; conditions: human, hek293, 8 min, 0.1 µM
[3] = Drug uptake in OATP1B3 (-/-) HEK293 cells at 100 nM measured up to 8 mins by fluorescence time-lapse microscopy; format: ADME, cell-based; conditions: human, hek293, 8 min, 0.1 µM
HEK293 [4] = assay: Cytotoxicity against OATP1B3 (-/-) HEK293 cells incubated for 48 hrs by sulforhodamine B assay; format: ADME, cell-based, Homo sapiens

SMILES	pEC50 (HEK293 [1])	Drug uptake [2]	Drug uptake [3]	pEC50 (HEK293 [4])
C=C1C(=O)N[C@H](C)C(=O)N[C@@H](Cc2ccc(OCc3cn(-c4cc5ccc(O)cc5oc4=O)nn3)cc2)C(=O)N[C@@H](C(=O)O)[C@H](C)C(=O)N[C@@H](CCCNC(=N)N)C(=O)N[C@@H](/C=C/C(C)=C/[C@H](C)[C@H](Cc2ccccc2)OC)[C@H](C)C(=O)N[C@@H](C(=O)O)CCC(=O)N1C	< 5.70	Not Active	Not Active	< 5.70
C#CCOc1ccc(C[C@@H]2NC(=O)[C@@H](C)NC(=O)C(=C)N(C)C(=O)CC[C@H](C(=O)O)NC(=O)[C@@H](C)[C@H](/C=C/C(C)=C/[C@H](C)[C@H](Cc3ccccc3)OC)NC(=O)[C@H](CCCNC(=N)N)NC(=O)[C@@H](C)[C@H](C(=O)O)NC2=O)cc1 (R[Adda][d(γGlu)][NMeDha][dA]Y(Propargyl)[dAsp(3S-Me)]-OH; lactam N-7)	< 5.70	–	–	< 5.70
C=C1C(=O)N[C@H](C)C(=O)N[C@@H](Cc2ccc(O)cc2)C(=O)N[C@@H](C(=O)O)[C@H](C)C(=O)N[C@@H](CCCNC(=N)N)C(=O)N[C@@H](/C=C/C(C)=C/[C@H](C)[C@H](Cc2ccccc2)OC)[C@H](C)C(=O)N[C@@H](C(=O)O)CCC(=O)N1C (R[Adda][d(γGlu)][NMeDha][dA]Y[dAsp(3S-Me)]-OH; lactam N-7)	< 5.70	–	–	< 5.70

Reference: ChEMBL document CHEMBL4619767, “Precursor-Directed Biosynthesis and Fluorescence Labeling of Clickable Microcystins” (J Nat Prod, 2020)
